# Where two headings read alike, the source gives them in different places.
# Tests used:
# [1] = system: Streptococcus pneumoniae; experiment: MIC, 25 ocular isolates, broth microdilution (Example 8); format: cell-based
# Description: (§1) Mueller-Hinton Broth supplemented with 2% lysed horse blood in tubes was inoculated with 25 ocular isolates of Streptococcus pneumoniae, Streptococcus viridans group, and Moraxella species (including Moraxella catarrhalis) plus two controls (Staphylococcus aureus and E. coli) and incubated at 37° C. overnight. Additionally, Mueller-Hinton Broth in tubes was inoculated with two controls (Staphylococcus aureus and E. coli) and incubated at 37° C. overnight on a shaker set at 250 rpm.
# (§2) On the day of testing, a 640 μg/ml (1280 μg/ml for Serratia marcescens and Pseudomonas aeruginosa) concentration was prepared from a 1% stock solution in 0.01% acetic acid, 0.2% BSA in polypropylene tubes.
# (§3) Serial doubling dilutions in 0.01% acetic acid, 0.2% BSA in 96 well polypropylene plates, which are used as reservoirs for the inoculation of the test plates, were carried out to obtain serial dilutions of test agents at 10 times the required test concentrations: 640, 320, 160, 80, 40, 20, 10, 5, 2.5, 1.25, and 0.625 μg/ml (1280, 640, 320, 160, 80, 40, 20, 10, 5, 2.5, and 1.25 μg/ml for Serratia marcescens and Pseudomonas aeruginosa).
# (§4) Ten μl of diluted 10×test agents was added to each well of one row of the 96 well polypropylene plates from column 2 to column 12 (column 1 is a control for bacteria alone, with no peptide). Test agent concentrations in columns 2-12 were as follows: 64, 32, 16, 8, 4, 2, 1, 0.5, 0.25, 0.125, and 0.0625 μg/ml (128, 64, 32, 16, 8, 4, 2, 1, 0.5, 0.25, and 0.125 μg/ml for Serratia marcescens and Pseudomonas aeruginosa). The same peptide was in each of the 8 rows. One plate contained dilutions of one test agent and 8 bacterial isolates.
# (§5) On the day of testing, the overnight bacterial broth cultures of Streptococcus pneumoniae, Streptococcus viridans and Moraxella species (including Moraxella catarrhalis) plus two controls (Staphylococcus aureus and E. coli) were diluted in 5 ml of trypticase soy broth to yield turbidity equal to a 0.5 McFarland standard. The final inoculum for MIC testing for Streptococcus pneumoniae, Streptococcus viridans and Moraxella species (including Moraxella catarrhalis) was achieved by placing 0.1 ml of the turbidity adjusted sample to 5 ml of Mueller-Hinton broth containing 2% lysed horse red blood cells.
# (§6) Ninety μl of the bacterial suspensions was dispensed in each well from column 1 to column 12. Each bacterial isolate was placed in one row of a 96 well polypropylene plate containing the test agents. The plates were placed on shaker at 15 minutes at room temperature, and then incubated at 37° C. overnight. MICs were determined visually as the lowest concentration of drug that inhibits visible bacterial growth.
# [2] = system: Moraxella species (including Moraxella catarrhalis); experiment: as above; format: cell-based; conditions: Moraxella
# Description: as §1, §2, §3, §4, §5, §6
smiles,measurement,setting,value
N=C(N)NCCCCC(=O)Nc1cc(C(F)(F)F)cc(NC(=O)c2cnc(C(=O)Nc3cc(C(F)(F)F)cc(NC(=O)CCCCNC(=N)N)c3SCCN)cn2)c1SCCN [Oligomer 5],MIC50,"[1]; 25 isolates, Row 13",4 µg/mL
same,MIC90,"[1]; 25 isolates, Row 22",16 µg/mL
same,Range of MICs,"[1]; 25 isolates, Summary of Results, >64 was Replaced with 128",4 to 128 µg/mL
same,MIC,"[1]; Streptococcus pneumoniae, 25 ocular isolates, Mueller-Hinton broth with 2% lysed horse red blood cells, read-out: Median MIC",≤ 4 µg/mL
same,MIC,"[1]; Streptococcus pneumoniae, isolate 1—B1386, read-out: MIC",> 64 µg/mL
same,MIC,"[1]; Streptococcus pneumoniae, isolate 2—B1380, read-out: MIC",4 µg/mL
same,MIC,"[1]; Streptococcus pneumoniae, isolate 3—B1378, read-out: MIC",0.5 µg/mL
same,MIC,"[1]; Streptococcus pneumoniae, isolate 4—B1377, read-out: MIC",8 µg/mL
same,MIC,"[1]; Streptococcus pneumoniae, isolate 5—B1373, read-out: MIC",8 µg/mL
same,MIC,"[1]; Streptococcus pneumoniae, isolate 6—B1367, read-out: MIC",16 µg/mL
same,MIC,"[1]; Streptococcus pneumoniae, isolate 7—B1355, read-out: MIC",8 µg/mL
same,MIC,"[1]; Streptococcus pneumoniae, isolate 8—B1353, read-out: MIC",4 µg/mL
same,MIC,"[1]; Streptococcus pneumoniae, isolate 9—B1351, read-out: MIC",1 µg/mL
same,MIC,"[1]; Streptococcus pneumoniae, isolate 10—B1339, read-out: MIC",2 µg/mL
same,MIC,"[1]; Streptococcus pneumoniae, isolate 11—B1337, read-out: MIC",1 µg/mL
same,MIC,"[1]; Streptococcus pneumoniae, isolate 12—B1335, read-out: MIC",1 µg/mL
same,MIC,"[1]; Streptococcus pneumoniae, isolate 13—B1334, read-out: MIC",1 µg/mL
same,MIC,"[1]; Streptococcus pneumoniae, isolate 14—B1333, read-out: MIC",1 µg/mL
same,MIC,"[1]; Streptococcus pneumoniae, isolate 15—B1255, read-out: MIC",1 µg/mL
same,MIC,"[1]; Streptococcus pneumoniae, isolate 16—B1288, read-out: MIC",8 µg/mL
same,MIC,"[1]; Streptococcus pneumoniae, isolate 17—B1287, read-out: MIC",16 µg/mL
same,MIC,"[1]; Streptococcus pneumoniae, isolate 18—B1272, read-out: MIC",1 µg/mL
same,MIC,"[1]; Streptococcus pneumoniae, isolate 19—B1264, read-out: MIC",1 µg/mL
same,MIC,"[1]; Streptococcus pneumoniae, isolate 20—B1252, read-out: MIC",16 µg/mL
same,MIC,"[1]; Streptococcus pneumoniae, isolate 21—B1245, read-out: MIC",2 µg/mL
same,MIC,"[1]; Streptococcus pneumoniae, isolate 22—B1211, read-out: MIC",8 µg/mL
same,MIC,"[1]; Streptococcus pneumoniae, isolate 23—B1213, read-out: MIC",16 µg/mL
same,MIC,"[1]; Streptococcus pneumoniae, isolate 24—B1208, read-out: MIC",8 µg/mL
same,MIC,"[1]; Streptococcus pneumoniae, isolate 25—B1214, read-out: MIC",4 µg/mL
same,MIC,"[1]; Streptococcus pneumoniae, n=25 per group, read-out: Median MIC",4 µg/mL
same,MIC50,"[1]; Streptococcus pneumoniae, 25 isolates, Summary of Results, read-out: MIC50",4 µg/mL
same,MIC90,"[1]; Streptococcus pneumoniae, 25 isolates, Summary of Results, read-out: MIC90",16 µg/mL
same,MIC,"[1]; Streptococcus pneumoniae, 25 isolates, Summary of Results, read-out: Median MIC",4 µg/mL
same,MIC50,[1]; n=25 per group,4 µg/mL
same,MIC90,[1]; n=25 per group,16 µg/mL
same,Range of MICs,[1]; n=25 per group,4 to 128 µg/mL
same,MIC,"[2]; 25 ocular isolates, Mueller-Hinton broth with 2% lysed horse red blood cells, read-out: Median MIC",≤ 4 µg/mL
same,MIC,"[2]; isolate 1 K1614 - MS, read-out: MIC",64 µg/mL
same,MIC,"[2]; isolate 2 K1661 - MS, read-out: MIC",16 µg/mL
same,MIC,"[2]; isolate 3 K1643 - MS, read-out: MIC",0.125 µg/mL
same,MIC,"[2]; isolate 4 K1640 - MS, read-out: MIC",8 µg/mL
same,MIC,"[2]; isolate 5 B1431 - MS, read-out: MIC",0.5 µg/mL
same,MIC,"[2]; isolate 6 B1429 - MS, read-out: MIC",1 µg/mL
same,MIC,"[2]; isolate 7 B1418 - MS, read-out: MIC",0.25 µg/mL
same,MIC,"[2]; isolate 8 K1784 - MS, read-out: MIC",0.25 µg/mL
same,MIC,"[2]; isolate 9 K1773 - MS, read-out: MIC",0.25 µg/mL
same,MIC,"[2]; isolate 10 K1369 - MS, read-out: MIC",2 µg/mL
same,MIC,"[2]; isolate 11 B1275 - MS, read-out: MIC",0.125 µg/mL
same,MIC,"[2]; isolate 12 B1221 - MS, read-out: MIC",0.125 µg/mL
same,MIC,"[2]; isolate 13 B1172 - MS, read-out: MIC",> 64 µg/mL
same,MIC,"[2]; isolate 14 E542 - MS, read-out: MIC",2 µg/mL
same,MIC,"[2]; isolate 15 K678 - MS, read-out: MIC",0.5 µg/mL

# — US20130065818A1, “Arylamide Compounds And Compositions And Uses Thereof” (POLYMEDIX, priority 2006, published 2013)
